In experiment [1] the target is T1, GABAA receptor (rat α1β2 γ2) (Rattus norvegicus, UniProt P18508+P62813+P63138).
T1 construct: expressed in transfected cells
Description: cell-based.
Description: Doubly transfected cell lines were generated that express GABAA receptor (rat α1β2 γ2) together with a yellow fluorescent protein (YFP) Topaz-based halide sensor (46/148/152 mutant).
Doubly transfected cells were plated onto black-walled, clear-bottomed, poly-D-lysine-coated 384-well plates (Becton Dickinson Biosciences). Prior to the assay, the cell medium was removed and replaced with chloride-free plating medium (CFPM; see the composition below). After the incubation in CFPM for 3-4 hours at 37° C. in a 5% CO2 atmosphere, the medium was removed and replaced with chloride-free assay buffer (CFAB; see the composition below ), containing the final concentrations of test compounds. The cells were incubated for 15-20 minutes in the dark (to preserve fluorescence of the YFP) at room temperature (RT). Once the incubation was complete, the cell plates were transferred to the FLIPR (Molecular Devices Inc., Sunnyvale, Calif.) for the assay.
YFP was excited with 488 nm wavelength light and the fluorescence measured using a 540/60 nm bandpass emission filter. FLIPR settings were routinely adjusted so that the background fluorescence reading at the beginning of the assay was 20,000-50,000 counts/ms. After measuring a baseline readout of 10 seconds, the stimulus buffer was added to the well and signal was recorded for 2-4 more minutes. The stimulus buffer comprised CFAB, except that the sodium gluconate component was replaced with sodium iodide. Note that the addition of the iodide causes quenching of the fluorescent signal. In the majority of the experiments, the final concentration of sodium iodide in the stimulus buffer was about 5 mM.
The fluorescence response was corrected for the background fluorescence, as well as for the fluorescence changes, caused by iodide only. […] The initial analysis and data export was done using FLIPR-384 software (Version 1.25).
Microsoft Excel® was used to plot concentration-response curves and determine an EC50 value. […]

Experiment [2] relates to hippocampal granule cells. To be noted: read-out: EC50 for diazepam; cited from earlier work.
The subject of experiment [3] is neuronal-like cell line NT-2 N. To be noted: read-out: EC50 for diazepam; cited from earlier work.
The target in experiment [4] is α1-containing isoforms of the GABA(A) receptor. To be noted: read-out: EC50 for diazepam, published electrophysiological recordings; α1-containing isoforms in various expression systems; cited from earlier work.

Read-outs that look alike come from different tables or passages of the source.

T1 sequence (P62813 28-455): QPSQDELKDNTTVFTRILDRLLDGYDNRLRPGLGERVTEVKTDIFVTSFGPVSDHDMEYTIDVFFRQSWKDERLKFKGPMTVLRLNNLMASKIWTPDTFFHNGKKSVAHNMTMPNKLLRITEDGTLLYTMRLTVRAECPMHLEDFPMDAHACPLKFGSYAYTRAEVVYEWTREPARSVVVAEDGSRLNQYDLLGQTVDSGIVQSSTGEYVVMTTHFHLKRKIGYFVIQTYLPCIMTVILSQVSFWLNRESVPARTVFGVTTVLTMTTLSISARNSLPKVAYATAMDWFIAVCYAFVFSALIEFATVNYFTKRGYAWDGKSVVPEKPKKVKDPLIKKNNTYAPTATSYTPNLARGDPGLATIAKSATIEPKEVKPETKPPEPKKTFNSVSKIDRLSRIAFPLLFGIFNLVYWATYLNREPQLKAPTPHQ
T1 sequence (P63138 25-474 limits assumed): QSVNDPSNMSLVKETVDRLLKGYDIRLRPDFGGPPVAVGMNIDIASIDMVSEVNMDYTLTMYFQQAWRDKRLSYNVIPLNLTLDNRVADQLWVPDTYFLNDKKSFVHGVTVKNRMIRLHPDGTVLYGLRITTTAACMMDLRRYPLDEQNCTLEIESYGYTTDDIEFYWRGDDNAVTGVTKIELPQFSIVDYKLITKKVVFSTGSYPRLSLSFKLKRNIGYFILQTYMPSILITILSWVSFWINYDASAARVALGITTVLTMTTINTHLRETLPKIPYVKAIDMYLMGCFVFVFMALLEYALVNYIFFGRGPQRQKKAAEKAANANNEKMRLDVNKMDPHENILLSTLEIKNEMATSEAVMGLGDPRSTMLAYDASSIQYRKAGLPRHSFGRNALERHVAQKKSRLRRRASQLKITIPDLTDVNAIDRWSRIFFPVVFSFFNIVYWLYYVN
T1 sequence (P18508 39-466): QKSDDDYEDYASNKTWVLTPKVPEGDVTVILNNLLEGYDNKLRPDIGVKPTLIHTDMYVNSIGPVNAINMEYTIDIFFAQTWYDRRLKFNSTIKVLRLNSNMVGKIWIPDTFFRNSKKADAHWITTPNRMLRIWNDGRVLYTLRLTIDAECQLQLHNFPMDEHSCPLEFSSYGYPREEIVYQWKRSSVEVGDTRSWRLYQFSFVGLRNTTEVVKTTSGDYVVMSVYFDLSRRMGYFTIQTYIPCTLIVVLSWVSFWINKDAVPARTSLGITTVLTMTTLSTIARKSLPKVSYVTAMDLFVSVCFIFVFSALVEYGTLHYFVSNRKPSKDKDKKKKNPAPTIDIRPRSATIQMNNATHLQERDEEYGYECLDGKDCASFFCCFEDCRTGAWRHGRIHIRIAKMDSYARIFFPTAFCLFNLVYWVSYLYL

For the molecule `CC(=O)[C@H]1CC[C@H]2[C@@H]3CC[C@H]4C[C@H](O)CC[C@]4(C)[C@H]3CC[C@]12C` [allopregnanolone], in experiment [1] (against constant GABA 0.25 μM), the “Effect on GABA-induced fluorescent signal” value was “concentration-dependent increase”.

In the case of `CN1C(=O)CN=C(c2ccccc2)c2cc(Cl)ccc21` [diazepam], the EC50 is 122 nM in experiment [2], 74 nM in experiment [3] and 53 to 70 nM in experiment [4]. In addition, in experiment [1], the “Effect on GABA-induced fluorescent signal” value was “concentration-dependent increase”.

Consider `CN1CCc2cc3c(cc2[C@H]1[C@@H]1OC(=O)c2c1ccc1c2OCO1)OCO3` [bicuculline], for which inhibition in experiment [1] was half-maximal at 4700 ± 900 nM (IC50).

The values above are taken from patent US20060257934A1 (priority 2005, published 2006).
